{
  "source": "patent US5574026A",
  "about": "“Methods for inhibiting angiogenesis proliferation of endothelial or tumor cells and tumor growth” (American Cyanamid Company, priority 1994, dated 1996)",
  "key": {"A2780S": {"system": "A2780S", "experiment": "Antiproliferative activity in human tumor cell lines, PROTOCOL 1 and PROTOCOL 2", "type": "cell-based", "settings": "ovarian tumor cell line A2780S, 48 hours, read-out: IC50", "description": "(§1) The assays are identified as follows: PROTOCOLS 1, 2, and 3 are described in greater detail hereinbelow. In general, according to PROTOCOLS 1 and 2, the target ABAE and/or Human Tumor cells are exposed to the compounds of Formula I for 48 hours. PROTOCOL 3 exposes ABAE cells to the compounds for 4 days. A detailed description of the Protocols is as follows: Antiproliferative Activity in Human Tumor Cell Lines The antiproliferative activity of the compounds of Formula I of the present invention is evaluated in a panel comprised of human tumor cell lines. […] Cultures are renewed after 20 passages with cells from a fresh stock of batch-frozen early passage cells. Cell lines are routinely checked for mycoplasma contamination (Genprobe). In a laminar flow hood, cells (1-5×10^4) are plated into 96-well microtiter plates in a volume of 0.1 ml/well with a bulk microtiter dispenser (Denley). […] Compounds are added using a Tomtec dispenser which simultaneously dispenses from one 96-well plate, containing the drug dilutions, to the plates containing the cells. After two days of continuous drug exposure, 50% cold trichloroacetic acid (TCA) is added to 10% final concentration to fix the cells, and after 60 minutes at 4° C., the TCA is aspirated and the plates are washed 5 times with deionized water using a microtiter plate washer. […] A 0.4% solution of the dye, sulforhodamine B, in glacial acetic acid is added to the plates, and the plates are washed 5 times with 1% glacial acetic acid using the automatic plate washed. The bound stain is solubilized with 0.1 ml of 10 mMTris base. The optical densities are read from an automatic spectrophotometric plate reader (Dynatech) directly to a main frame computer (VAX 8600). Positive controls, that include standard chemotherapeutic drugs (i.e., adriamycin, cisplatin, etc.), are included in every experiment. Background optical density measurements (complete media--cells, and complete media+drug-cells) are automatically subtracted from the appropriate control and test wells. Mean values and standard errors are determined from duplicate wells. A measure is also made of the optical density at time when the drugs are added. The number of cells after treatment (P), as % of control, is calculated for every concentration of drug, as follows: [formula] wherein: T is optical density measurement for treated cells after 48 hours; C is optical density measurement for untreated cells after 48 hours; Co is optical density measurement for cells at the time of drug addition. IC50 of Growth inhibition is calculated from the sets of P values using the RS-1 data package (BBN Software). Antiproliferative Activity in Human Tumor and Adult Bovine Aortic Endothelial Cell Lines (ABAE) The antiproliferative activity of the compounds of Formula I is evaluated in a panel comprised of human tumor cell lines as listed in Protocol 1 as well as an adult bovine aortic endothelial cell line (ABAE). This assay is a modification of PROTOCOL 1."}, "HTB 161": {"system": "HTB 161", "experiment": "Antiproliferative activity in human tumor cell lines, PROTOCOL 1 and PROTOCOL 2", "type": "cell-based", "settings": "HTB 161, 48 hours", "description": "as §1"}, "angiogenesis": {"system": "angiogenesis", "settings": "Brem et al; in words; cited from earlier work"}, "[1]": {"system": "Adult Bovine Aortic Endothelial (ABAE) cell line", "experiment": "Antiproliferative activity in Adult Bovine Aortic Endothelial (ABAE) cell line, PROTOCOL 3 (4 days, cell count)", "type": "cell-based", "description": "The antiproliferative activity of the compounds of Formula I in an Adult Bovine Aortic Endothelial (ABAE) cell line and in Human Tumor cells lines is evaluated in three similar assays that measure growth inhibition. The assays are identified as follows:\nPROTOCOLS 1, 2, and 3 are described in greater detail hereinbelow. In general, according to PROTOCOLS 1 and 2, the target ABAE and/or Human Tumor cells are exposed to the compounds of Formula I for 48 hours. PROTOCOL 3 exposes ABAE cells to the compounds for 4 days. A detailed description of the Protocols is as follows:\nAntiproliferative Activity in Adult Bovine Aortic Endothelial (ABAE) Cell Line\nABAE cells are grown in DMEM media (Mediatech, Washington, D.C.) supplemented with 10% calf serum (Hyclone). ABAE cells are plated in 24-well dishes at 8,000 cells/well, followed by the addition of increasing concentrations of 7-halogen-9-[hydrogen or [(substituted glycyl)amido]]-6-demethyl-6-deoxytetracycline. After four days, the cells are detached and counted. […] The growth inhibition (I) as % of control is calculated as follows: [formula] wherein: Nc is the number of cells in untreated wells;\nNt is the number of cells in treated wells;\nNo is the number of plated cells.\nIC50 of growth inhibition is determined from the sets of I values plotted by Kaleidograph software (Abelbeck Software).\nTable 1 presents the results depicting the antiproliferative activity of the compounds of Formula I against an ABAE cell line, as evaluated by PROTOCOL 2 and PROTOCOL 3. The results are presented in terms of IC50 and are as follows."}, "tumor": {"system": "tumor", "settings": "Teicher et al; used in conjunction with cancer chemotherapy or radiation therapy; cited from earlier work"}},
  "note": "Entries after “also recorded” stand apart in the source; their conditions may differ. Where a name gives a salt, the structure may show the parent alone.",
  "data": [
    {"smiles": "CN(C)[C@@H]1C(O)=C(C(N)=O)C(=O)[C@@]2(O)C(O)=C3C(=O)c4c(O)ccc(Br)c4CC3CC12", "note": "(stereo partly drawn) [Example 8, [4S-(4α,12aα)]-7-Bromo-4-(dimethylamino)-1,4,4a,5,5a,-6,11,12a-octahydro-3,10,12,12a-tetrahydroxy-1,11-dioxo-2-naphthacenecarboxamide sulfate]", "values": [
      {"measurement": "IC50", "setting": "A2780S", "value": 0.6, "unit": "µg/mL"},
      {"measurement": "IC50", "setting": "HTB 161", "value": 0.6, "unit": "µg/mL"}
    ]},
    {"smiles": "CN(C)[C@@H]1C(O)=C(C(N)=O)C(=O)[C@@]2(O)C(O)=C3C(=O)c4c(O)ccc(I)c4CC3CC12", "note": "(stereo partly drawn) [Example 10, [4S-(4α,12aα)]-4-(Dimethylamino)-4,4,4a,5,5a,6,11,12a-octahydro-3,10,12,12a-tetrahydroxy-7-iodo-1,11-dioxo-2-naphthacenecarboxamide]", "values": [
      {"measurement": "IC50", "setting": "A2780S", "value": 0.7, "unit": "µg/mL"},
      {"measurement": "IC50", "setting": "HTB 161", "value": 0.7, "unit": "µg/mL"}
    ]},
    {"smiles": "CN(C)c1ccc(O)c2c1C[C@H]1C[C@H]3[C@H](N(C)C)C(O)=C(C(N)=O)C(=O)[C@@]3(O)C(O)=C1C2=O", "note": "[Minocycline, reference compound]", "values": [
      {"measurement": "inhibition of angiogenesis", "setting": "angiogenesis", "value": "inhibits angiogenesis to an extent comparable to that of the combination therapy of heparin and cortisone; also recorded: useful as inhibitors of angiogenesis"},
      {"measurement": "IC50", "setting": "[1]; Bos taurus, 96 h, ABAE cells, PROTOCOL 3, 4 days, read-out: IC50 PROTOCOL 3", "value": "≥ 50", "unit": "µg/mL"},
      {"measurement": "activity upon incubation with cells", "setting": "[1]; FIG. 1, 4 day assay (Protocol 3), in words", "value": "losing its activity upon incubation with cells"},
      {"measurement": "number of metastases with chemotherapy or radiation therapy", "setting": "tumor", "value": "the number of metastases is reduced"},
      {"measurement": "tumor growth with chemotherapy or radiation therapy", "setting": "tumor", "value": "tumor growth is decreased"}
    ]}
  ]
}
